Results taken from paper PMC7944240 (Anesthesiology, 2020).
pEC50, pIC50: −log10 of the molar value.

How the values were obtained:
zebrafish larvae = assay: Zebrafish larvae photomotor response; type: in vivo, Danio rerio; settings: for pEC50: Danio rerio, read-out: EC50 for abolishing zebrafish larvae motor responses to a light stimulus
α1β3γ2L GABAA receptors [1] = biological target: T1, α1β3γ2L GABAA receptors (Homo sapiens, UniProt P14867+P18507+P28472); type: cell-based
α1β3γ2L GABAA receptors [2] = biological target: T1, α1β3γ2L GABAA receptors; type: cell-based; remark: listed apart in the source
GABAA receptor = settings: cited from earlier work
α1β3γ2L GABAA receptors [3] = biological target: T1, α1β3γ2L GABAA receptors; type: cell-based; settings: for pIC50: IC50 for antagonizing direct activation by 20 μM etomidate in the presence of flumazenil, [Benzodiazepine]:[Flumazenil] = 1:2
[4] = biological target: purified α1β3γ2L GABAA receptors (Homo sapiens, UniProt P14867+P18507+P28472); assay: Inhibition of R-[3H]azietomidate photoaffinity labeling of purified receptors; settings: at up to 300 μM
purified α1β3γ2L GABAA receptors, sequence (P14867 28-456): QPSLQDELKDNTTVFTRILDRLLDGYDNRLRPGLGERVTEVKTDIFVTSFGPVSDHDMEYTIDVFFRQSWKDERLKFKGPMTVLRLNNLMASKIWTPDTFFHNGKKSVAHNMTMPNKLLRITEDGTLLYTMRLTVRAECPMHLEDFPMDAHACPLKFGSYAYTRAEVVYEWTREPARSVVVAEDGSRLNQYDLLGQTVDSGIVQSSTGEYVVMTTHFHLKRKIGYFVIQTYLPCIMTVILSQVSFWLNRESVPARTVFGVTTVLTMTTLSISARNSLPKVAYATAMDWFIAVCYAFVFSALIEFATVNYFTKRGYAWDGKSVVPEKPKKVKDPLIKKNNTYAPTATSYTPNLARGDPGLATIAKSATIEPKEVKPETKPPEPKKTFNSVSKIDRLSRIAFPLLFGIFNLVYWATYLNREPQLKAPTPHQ
purified α1β3γ2L GABAA receptors, sequence (P28472 26-473): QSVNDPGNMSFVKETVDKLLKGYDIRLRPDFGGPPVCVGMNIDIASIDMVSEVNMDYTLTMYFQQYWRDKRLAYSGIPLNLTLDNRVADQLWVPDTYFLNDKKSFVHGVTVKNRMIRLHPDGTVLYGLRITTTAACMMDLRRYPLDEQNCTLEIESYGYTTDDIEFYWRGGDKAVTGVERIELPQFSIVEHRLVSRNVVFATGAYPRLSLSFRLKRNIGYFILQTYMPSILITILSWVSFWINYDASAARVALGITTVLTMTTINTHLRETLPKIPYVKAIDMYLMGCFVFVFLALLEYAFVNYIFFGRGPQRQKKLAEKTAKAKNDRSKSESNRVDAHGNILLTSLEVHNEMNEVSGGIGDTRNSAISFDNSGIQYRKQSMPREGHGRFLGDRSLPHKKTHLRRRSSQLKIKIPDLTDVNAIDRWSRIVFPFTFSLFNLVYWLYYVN
purified α1β3γ2L GABAA receptors, sequence (P18507 40-475): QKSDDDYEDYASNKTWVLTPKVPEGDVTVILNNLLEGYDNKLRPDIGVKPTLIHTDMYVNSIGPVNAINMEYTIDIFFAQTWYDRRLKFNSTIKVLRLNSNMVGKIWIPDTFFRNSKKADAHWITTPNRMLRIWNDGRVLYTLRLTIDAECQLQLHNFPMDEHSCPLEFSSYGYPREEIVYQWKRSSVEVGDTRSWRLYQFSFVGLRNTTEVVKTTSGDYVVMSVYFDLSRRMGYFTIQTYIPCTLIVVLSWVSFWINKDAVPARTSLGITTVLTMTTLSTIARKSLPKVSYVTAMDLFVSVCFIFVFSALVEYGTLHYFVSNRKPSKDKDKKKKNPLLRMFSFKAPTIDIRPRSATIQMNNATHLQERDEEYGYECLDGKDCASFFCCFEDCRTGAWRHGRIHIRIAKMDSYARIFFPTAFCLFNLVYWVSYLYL

purified GABAA receptors = settings: cited from earlier work

T1 sequence (P14867 28-456): as the sequence (P14867 28-456) above
T1 sequence (P28472 26-473): as the sequence (P28472 26-473) above
T1 sequence (P18507 40-475): as the sequence (P18507 40-475) above

CN1C(=O)CN=C(c2ccccc2)c2cc(Cl)ccc21 [Diazepam]
effect on zebrafish larvae motor responses to light stimulus (zebrafish larvae; 50 μM, alone, no flumazenil): essentially abolishes | Schild slope (α1β3γ2L GABAA receptors [1]; against etomidate direct activation, flumazenil present (1:4)): 1.1 | reduction of GABA-activated peak current amplitudes at micromolar concentrations (α1β3γ2L GABAA receptors [2]; 6 μM GABA): did not see a similar reduction | potentiation of currents activated by low concentrations of GABA via the etomidate binding site (GABAA receptor): no more than two- to threefold

Clc1ccc2c(c1)C(c1ccccc1)=NCc1nncn1-2 [Estazolam]
pIC50 (α1β3γ2L GABAA receptors [3]): 4.23

CN1C(=O)CN=C(c2ccccc2F)c2cc(Cl)ccc21 [Fludiazepam]
pIC50 (α1β3γ2L GABAA receptors [3]): 3.41 | etomidate inhibitory potency, fold lower than diazepam (α1β3γ2L GABAA receptors [3]; relative to diazepam): 30 ×

CCOC(=O)c1ncn2c1CN(C)C(=O)c1cc(F)ccc1-2 [Flumazenil]
effect on R-[3H]azietomidate photo-incorporation [4]: little inhibitory effect | impact on etomidate-activated currents in the absence of diazepam (α1β3γ2L GABAA receptors [3]; data not shown): no impact | impact on GABA-activated currents in the absence of diazepam (α1β3γ2L GABAA receptors [2]; data not shown): no impact

O=C1Nc2ccc(Cl)cc2C(c2ccccc2Cl)=NC1O (stereo not drawn) [Lorazepam]
pIC50 (α1β3γ2L GABAA receptors [3]): ≤ 3.00

CN1CCN=C(c2ccccc2)c2cc(Cl)ccc21 [Medazepam]
pIC50 (α1β3γ2L GABAA receptors [3]): ≤ 3.00

Cc1ncc2n1-c1ccc(Cl)cc1C(c1ccccc1F)=NC2 [Midazolam]
pIC50 (α1β3γ2L GABAA receptors [3]): 3.25

O=C1CN=C(c2ccccc2)c2cc([N+](=O)[O-])ccc2N1 [Nitrazepam]
pIC50 (α1β3γ2L GABAA receptors [3]): 3.89

O=C1CN=C(c2ccccc2)c2cc(Cl)ccc2N1 [Nordiazepam]
pIC50 (α1β3γ2L GABAA receptors [3]): 4.49

CCOC(=O)c1cncn1[C@H](C)c1ccccc1 [etomidate]
pEC50 (zebrafish larvae): 6.18 | Hill slope of etomidate concentration-response curve (α1β3γ2L GABAA receptors [1]; Schild analysis): 2.1 | potentiation of currents activated by low concentrations of GABA (GABAA receptor; high concentrations): more than an order of magnitude

CN1C(=O)CN=C(c2ccccc2F)c2cc([N+](=O)[O-])ccc21 [flunitrazepam]
reduction in apparent affinity with purified GABAA receptors (purified GABAA receptors): sevenfold

CNC1(c2ccccc2Cl)CCCCC1=O (stereo not drawn) [ketamine]
pEC50 (zebrafish larvae): 3.77 | fold leftward shift of anesthetic concentration-response curve (zebrafish larvae; by 50 μM diazepam plus 200 μM flumazenil): 19 fold
